According to patent publication US11453666B2, “Autotaxin inhibitory compounds” (Cancer Research Technology Limited, priority 2015, dated 2022):
Where two headings read alike, the source gives them in different places.

Target: human recombinant ATX (Homo sapiens, UniProt Q13822)
Test: Autotaxin (ATX) activity Quanta Red assay
Type: biochemical
Details: read-out: Activity (ATX activity, Quanta Red assay; IC50)
How it was run: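 Recombinant human ATX reaction stopped after 2 h with Quanta Red stop solution; fluorescence read at […]. Controls with DMSO, with and without ATX; IC50 in duplicate.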

[1] = human recombinant ATX 0.8 μg/mL, 2 hours at room temperature, IC50 determined in duplicate

SMILES	IC50	IC50 [1]
O=C(CCc1nc2cccnc2n1Cc1ccc(F)c(F)c1)NC[C@@H](O)c1ccccc1 [Example 65, 3-[3-(3,4-Difluoro-benzyl)-3H-imidazo[4,5-b]pyridin-2-yl]-N-((S)-2-hydroxy-2-phenyl-ethyl)-propionamide]	155 nM	
O=C(NCc1nc2cccnc2n1Cc1ccc(F)c(F)c1)N[C@@H](CO)c1ccccc1 [Example 162, 1-[3-(3,4-difluoro-benzyl)-3H-imidazo[4,5-b]pyridin-2-ylmethyl]-3-((R)-2-hydroxy-1-phenyl-ethyl)-urea]	209 nM	
C[C@H](NC(=O)CCc1nc2cccnc2n1Cc1ccc(F)cc1)c1ccc(N2CCCCCC2)cc1 [Example 178, N-[(S)-1-(4-Azepan-1-yl-phenyl)-ethyl]-3-[3-(4-fluoro-benzyl)-3H-imidazo[4,5-b]pyridin-2-yl]-propionamide]	3 nM	
COc1ccc(Cn2c(CCC(=O)N[C@@H](C)c3ccc(Cl)cc3)nc3cccnc32)cc1 [Example 84, N-[(S)-1-(4-Chloro-phenyl)-ethyl]-3-[3-(4-methoxy-benzyl)-3H-imidazo[4,5-b]pyridin-2-yl]-propionamide]		3 nM
O=C(CCc1nc2cccnc2n1Cc1ccc(OC(F)(F)F)cc1)N[C@@H](CS)c1ccccc1 [Example 209, N—((R)-2-mercapto-1-phenyl-ethyl)-3-[3-(4-trifluoromethoxy-benzyl)-3H-imidazo[4,5-b]pyridin-2-yl]-propionamide]	3 nM	
CCC[C@H](NC(=O)CCc1nc2ccncc2n1Cc1ccc(F)cc1)c1ccccc1 [Example 134, 3-[3-(4-Fluoro-benzyl)-3H-imidazo[4,5-c]pyridin-2-yl]-N-((S)-1-phenyl-butyl)-propionamide]	133 nM	
O=C(CCc1nc2cccnc2n1Cc1ccc(C(F)(F)F)cc1)NC(CO)c1ccc(OC(F)(F)F)cc1 (centres unmarked) [Example 32, N-[2-Hydroxy-1-(4-trifluoromethoxy-phenyl)-ethyl]-3-[3-(4-trifluoromethyl-benzyl)-3H-imidazo[4,5-b]pyridin-2-yl]-propionamide]	6 nM	
COc1ccc(Cn2c(CCC(=O)NCc3cccc(C)c3)nc3cccnc32)cc1 [Example 115, 3-[3-(4-Methoxy-benzyl)-3H-imidazo[4,5-b]pyridin-2-yl]-N-(3-methyl-benzyl)-propionamide]	650 nM	
O=C(CCc1nc2cccnc2n1Cc1ccc(F)cc1)N[C@@H](CO)c1ccccc1 [Example 28, 3-[3-(4-Fluoro-benzyl)-3H-imidazo[4,5-b]pyridin-2-yl]-N-((R)-2-hydroxy-1-phenyl-ethyl)-propionamide]	5 nM	
COc1ccc(Cn2c(CCC(=O)NCc3cccc(F)c3)nc3cccnc32)cc1 [Example 117, N-(3-Fluoro-benzyl)-3-[3-(4-methoxy-benzyl)-3H-imidazo[4,5-b]pyridin-2-yl]-propionamide]	373 nM	
CC(=O)N1CCC(CNC(=O)CCc2nc3cccnc3n2Cc2ccc(OC(F)(F)F)cc2)CC1 [Example 216, N-(1-Acetyl-piperidin-4-ylmethyl)-3-[3-(4-trifluoromethoxy-benzyl)-3H-imidazo[4,5-b]pyridin-2-yl]-propionamide]	495 nM	
CC[C@H](NC(=O)CCc1nc2cccnc2n1Cc1ccc(F)c(F)c1)c1ccccc1 [Example 89, 3-[3-(3,4-Difluoro-benzyl)-3H-imidazo[4,5-b]pyridin-2-yl]-N-((S)-1-phenyl-propyl)-propionamide]	8 nM	
CC[C@H]1CN(c2ccc([C@H](C)NC(=O)CCc3nc4cccnc4n3Cc3ccc(OC(F)(F)F)cc3)cc2)CCN1 [Example 172, N-{(S)-1-[4-((S)-3-Ethyl-piperazin-1-yl)-phenyl]-ethyl}-3-[3-(4-trifluoromethoxy-benzyl)-3H-imidazo[4,5-b]pyridin-2-yl]-propionamide]	2 nM	
O=C(CCc1nc2cccnc2n1Cc1ccc(OC(F)(F)F)cc1)NCc1ccc(Cl)cc1 [Example 18, N-(4-Chloro-benzyl)-3-[3-(4-trifluoromethoxy-benzyl)-3H-imidazo[4,5-b]pyridin-2-yl]-propionamide]	3 nM	
CC(C)(C)OC(=O)N1CCC(CNC(=O)CCc2nc3ccncc3n2Cc2ccc(OC(F)(F)F)cc2)CC1 [Example 135, 4-({3-[3-(4-Trifluoromethoxy-benzyl)-3H-imidazo[4,5-c]pyridin-2-yl]-propionylamino}-methyl)-piperidine-1-carboxylic acid tert-butyl ester]	1570 nM	
O=C(CCc1nc2cccnc2n1Cc1ccc(OC(F)(F)F)cc1)N[C@@H](C(=O)O)C1CCCCC1 [Example 194, (R)-cyclohexyl-{3-[3-(4-trifluoromethoxy-benzyl)-3H-imidazo[4,5-b]pyridin-2-yl]-propionylamino}-acetic Acid]	1 nM	

SMILES	IC50	IC50 [1]
O=C(CCc1nc2cccnc2n1Cc1ccc(OC(F)(F)F)cc1)N[C@H](CO)Cc1ccc(O)cc1 [Example 205, N-[(S)-1-Hydroxymethyl-2-(4-hydroxy-phenyl)-ethyl]-3-[3-(4-trifluoromethoxy-benzyl)-3H-imidazo[4,5-b]pyridin-2-yl]-propionamide]	188 nM	
C[C@H](NC(=O)NCc1nc2cccnc2n1Cc1ccc(F)c(F)c1)c1ccc(Br)cc1 [Example 158, 1-[(S)-1-(4-Bromo-phenyl)-ethyl]-3-[3-(3,4-difluoro-benzyl)-3H-imidazo[4,5-b]pyridin-2-ylmethyl]-urea]	17 nM	
C[C@H](NC(=O)CCc1nc2cccnc2n1Cc1ccc(F)cc1)c1ccc(N2CCOCC2)cc1 [Example 185, 3-[3-(4-Fluoro-benzyl)-3H-imidazo[4,5-b]pyridin-2-yl]-N-[(S)-1-(4-morpholin-4-yl-phenyl)-ethyl]-propionamide]	13 nM	
COc1ccc([C@H](C)NC(=O)CCc2nc3cc(C)cnc3n2Cc2ccc(OC(F)(F)F)cc2)cc1 [Example 212, N-[(S)-1-(4-Methoxy-phenyl)-ethyl]-3-[6-methyl-3-(4-trifluoromethoxy-benzyl)-3H-imidazo[4,5-b]pyridin-2-yl]-propionamide]	7 nM	
O=C(CCc1nc2ccncc2n1Cc1ccc(OC(F)(F)F)cc1)NCc1ccc(Cl)cc1 [Example 129, N-(4-Chloro-benzyl)-3-[3-(4-trifluoromethoxy-benzyl)-3H-imidazo[4,5-c]pyridin-2-yl]-propionamide]	20 nM	
O=C(CCc1nc2cccnc2n1Cc1ccc(F)c(F)c1)N[C@H]1CCc2ccccc21 [Example 55, 3-[3-(3,4-Difluoro-benzyl)-3H-imidazo[4,5-b]pyridin-2-yl]-N-(S)-indan-1-yl-propionamide]	40 nM	
CN(C)c1ccc(CNC(=O)CCc2nc3cccnc3n2Cc2ccc(OC(F)(F)F)cc2)cc1 [Example 31, N-(4-Dimethylamino-benzyl)-3-[3-(4-trifluoromethoxy-benzyl)-3H-imidazo[4,5-b]pyridin-2-yl]-propionamide]	6 nM	
C[C@H](NC(=O)CCc1nc2cccnc2n1Cc1ccc(F)c(F)c1)c1ccc(N2CCNCC2)cc1 [Example 193, 3-[3-(3,4-Difluoro-benzyl)-3H-imidazo[4,5-b]pyridin-2-yl]-N-[(S)-1-(4-piperazin-1-yl-phenyl)-ethyl]-propionamide]	83 nM	
COc1ccc(Cn2c(CCC(=O)N[C@@H](C)c3ccc(Cl)cc3)nc3cccnc32)cc1F [Example 24, N-[(S)-1-(4-Chloro-phenyl)-ethyl]-3-[3-(3-fluoro-4-methoxy-benzyl)-3H-imidazo[4,5-b]pyridin-2-yl]-propionamide]	4 nM	
O=C(CCc1nc2cccnc2n1Cc1ccc(F)c(F)c1)NC(CO)c1ccc(F)cc1 (centres unmarked) [Example 50, 3-[3-(3,4-Difluoro-benzyl)-3H-imidazo[4,5-b]pyridin-2-yl]-N-[1-(4-fluoro-phenyl)-2-hydroxy-ethyl]-propionamide]	22 nM	
O=C(CCc1nc2cccnc2n1Cc1ccc(OC(F)F)cc1)N[C@H](Cc1ccccc1)C(=O)O [Example 197, (R)-2-{3-[3-(4-Difluoromethoxy-benzyl)-3H-imidazo[4,5-b]pyridin-2-yl]-propionylamino}-3-phenyl-propionic acid]	5 nM	
C[C@H](NC(=O)CCc1nc2cccnc2n1Cc1ccc(F)c(F)c1)c1ccc(N2CCN(C)CC2)cc1 [Example 182]	8 nM	
C[C@H](NC(=O)CCc1nc2cccnc2n1Cc1ccc(OC(F)(F)F)cc1)c1ccc(N2CCN[C@@H](C)C2)cc1 [Example 176, N-{(S)-1-[4-((S)-3-Methyl-piperazin-1-yl)-phenyl]-ethyl}-3-[3-(4-trifluoromethoxy-benzyl)-3H-imidazo[4,5-b]pyridin-2-yl]-propionamide]	3 nM	
C[C@H](NC(=O)CCc1nc2cccnc2n1Cc1ccc(F)cc1)c1ccc(F)cc1 [Example 88, 3-[3-(4-Fluoro-benzyl)-3H-imidazo[4,5-b]pyridin-2-yl]-N-[(S)-1-(4-fluoro-phenyl)-ethyl]-propionamide]	6 nM	
C[C@H](NC(=O)C[S+]([O-])c1nc2cccnc2n1Cc1ccc(OC(F)(F)F)cc1)c1ccc(F)cc1 (single isomer, unassigned) [Example 148]		10 nM
COc1cccc([C@H](C)NC(=O)NCc2nc3cccnc3n2Cc2ccc(F)cc2)c1 [Example 165, 1-[3-(4-Fluoro-benzyl)-3H-imidazo[4,5-b]pyridin-2-ylmethyl]-3-[(S)-1-(3-methoxy-phenyl)-ethyl]-urea]	514 nM	
